# Columns and labels:
# Caspase 3/7 [1] = test: Caspase 3/7 activity (pGlo) in donor one hESC-derived hepatocytes; format: cell-based, human; settings: concentration of peak caspase 3/7 activity, 8 days exposure
# Description: (§1) H9 and Man12 human embryonic stem cells (hESCs) identity was confirmed using short tandem repeat typing. hESCs were cultured and differentiated as previously described (Cameron et al. [2015]). Maintenance of hESCs was performed on pre-coated laminin 521 (Biolaminin) in mTeSR1 ([…] Technologies) in a humidified 37 °C, 5% CO2 incubator. For differentiation, hESCs were plated onto a pre-coated blend of laminins 521 and 111 (at a 1:3 ratio). Differentiation was initiated at 40% confluence by replacing serum-free medium with endoderm differentiation medium: RPMI 1640 containing 1× B27 (Life Technologies), 100 ng/mL Activin A (PeproTech), and 50 ng/mL Wnt3a (R&D Systems). The medium was changed every 24 h for 72 h. On day 3, endoderm differentiation medium was replaced with hepatoblast differentiation medium, and this was renewed every second day for a further 5 days. The medium consisted of knockout (KO)-DMEM (Life Technologies), Serum replacement (Life Technologies), 0.5% Glutamax (Life Technologies), 1% non-essential amino acids (Life Technologies), 0.2% β-mercaptoethanol (Life Technologies), and 1% DMSO (Sigma). On day 8, differentiating cells were cultured in the hepatocyte maturation medium HepatoZYME (Life Technologies) containing 1% Glutamax (Life Technologies), supplemented with 10 ng/mL hepatocyte growth factor (PeproTech) and 20 ng/mL oncostatin M (PeproTech). On day 10 maturation medium was replaced with HepatoZYME supplemented with and without smoking derivatives (Sigma-Aldrich) for a further 8 days, with media replaced every 48 h.
# (§2) Cell health was assessed measuring ATP production and Caspase 3/7 activity at Day 18 employing pGlo technology (Promega) in accordance with the manufacturer’s instructions. Levels of expression of both markers were expressed as percentage of relative light units (RLUs) per milliliter of medium and normalised to the vehicle control. Levels of significance were measured by Student’s t test. The experiments are representative of five biological replicates.
# (§3) Hepatocyte specification and maturation was performed in male and female hESCs lines in the presence or absence to smoking components. Cotinine at a concentration range of 1 to 300 nM, chrysene at a concentration range of 10 nM to 50 μM, fluorene at a concentration range of 10 nM to 100 μM, naphthalene at a concentration range of 10nm to 1 mM and phenanthrene, at a concentration range of 10 nM to 500 μM were used. Following 8 days exposure, cell health was determined by ATP production and caspase activity. Following this cell function was determined measuring CYP P450 3A and 1A2 activity. In order to measure the effectiveness of each component of cigarette smoke to inhibiting activity we used the half maximal inhibitory concentration (IC50).
# Caspase 3/7 [2] = test: Caspase 3/7 activity (pGlo) in donor two hESC-derived hepatocytes; format: cell-based, human; settings: concentration of peak caspase 3/7 activity, 8 days exposure
# Description: as §1, §2, §3
# CYP3A = CYP3A activity (pGlo) in donor two hESC-derived hepatocytes; settings: human two
# Description: as §1
# CYP3A and CYP1A2 activity was measured in hepatocytes at Day 18 using pGlo technology (Promega) in accordance with the manufacturer’s instructions. CYP activity was expressed as either relative light units (RLUs) per milliliter of medium per milligram of protein (determined by the BCA assay, Pierce), or as a percentage of CYP activity normalised to the vehicle control. Levels of significance were measured by Student’s t test. The experiments are representative of five biological replicates.
# as §3
# CYP1A2 = target: T1, CYP1A2 (Homo sapiens, UniProt P05177); test: CYP1A2 activity (pGlo) in donor one hESC-derived hepatocytes; format: cell-based; settings: female hepatocytes, 8 days exposure
# T1 sequence (P05177 2-516): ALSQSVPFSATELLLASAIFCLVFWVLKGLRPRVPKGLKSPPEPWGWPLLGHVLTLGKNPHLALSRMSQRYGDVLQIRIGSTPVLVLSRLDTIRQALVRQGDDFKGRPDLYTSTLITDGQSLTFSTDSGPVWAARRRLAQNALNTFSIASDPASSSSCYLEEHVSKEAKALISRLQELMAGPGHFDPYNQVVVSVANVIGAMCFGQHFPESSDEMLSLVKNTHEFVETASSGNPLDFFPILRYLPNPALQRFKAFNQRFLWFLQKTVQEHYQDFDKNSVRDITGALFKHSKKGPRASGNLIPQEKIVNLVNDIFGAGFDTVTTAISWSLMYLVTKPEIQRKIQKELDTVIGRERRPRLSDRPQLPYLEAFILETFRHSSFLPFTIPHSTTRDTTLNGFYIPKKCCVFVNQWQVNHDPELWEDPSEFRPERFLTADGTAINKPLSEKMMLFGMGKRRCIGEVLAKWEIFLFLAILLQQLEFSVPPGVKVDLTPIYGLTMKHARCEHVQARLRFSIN
# Source text: The experiments are representative of five biological replicates.
SMILES,Caspase 3/7 peak activity Female (Caspase 3/7 [1]),Caspase 3/7 peak activity Male (Caspase 3/7 [2]),IC50 at 8 days (CYP3A),IC50 CYP1A2 person one (CYP1A2),IC50 CYP1A2 person one (CYP1A2; listed as naphthalene)
c1ccc2c(c1)ccc1c3ccccc3ccc21 [Chrysene],25 µM,5 µM,10 µM,,
CN1C(=O)CC[C@H]1c1cccnc1 [Cotinine],0.1 µM,0.1 µM,0.05 µM,,
c1ccc2c(c1)Cc1ccccc1-2 [Fluorene],>100 µM,100 µM,25 µM,,
c1ccc2ccccc2c1 [Naphthalene],50 µM,1000 µM,68 µM,Induced activity,induced CYP1A2 activity
c1ccc2c(c1)ccc1ccccc12 [Phenanthrene],>500 µM,10 µM,58 µM,,
